Some test systems named below: SK-MEL-2 melanoma; HCC-2998 colon; IGROV1 ovarian; MCF7 breast; DU-145 prostate; SR leukemia; BT-549 breast; M14 melanoma; SF-539 CNS; UO-31 renal.
Holding throughout (experiment): NCI-60 cell line screen, 48 h

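Results reflect a 48-hour exposure of cells in 96-well plates to compound at five concentrations. GI50 is the concentration that inhibits growth by half. Definition used: TGI = concentration required for complete inhibition of growth.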 Where only a bound is given, the exact number is not on record here.

As for `Cc1cc(NCCCCNc2ccnc3cc(Cl)ccc23)nc(Nc2ccc(C(=O)N3CCCCC3)cc2)n1`, the GI50 was 2.05 µM in the test with SK-MEL-2 melanoma; 1.82 µM in the test on HCC-2998 colon; 2.27 µM in the test with IGROV1 ovarian; 1.48 µM with MCF7 breast; 2.87 µM in the test with DU-145 prostate; 0.24 µM in the test on SR leukemia. Moreover, the GI50 in the test with BT-549 breast was 1.69 µM; with M14 melanoma it was 0.197 µM. Besides, the TGI was determined as 3.9 µM in the test with SK-MEL-2 melanoma; 4.13 µM in the test with HCC-2998 colon; 6.22 µM in the test with IGROV1 ovarian; 4.34 µM in the test on MCF7 breast; 10.7 µM in the test with DU-145 prostate; 0.855 µM with SR leukemia. For the same molecule, the TGI in the test with BT-549 breast is 3.21 µM; in the test on M14 melanoma, 0.383 µM.
For the molecule `Cc1noc2c1-c1ccccc1C(c1ccc(Cl)cc1)=N[C@H]2CC(N)=O`, the GI50 with SK-MEL-2 melanoma was 18.1 µM; in the test on HCC-2998 colon, 9.5 µM; in the test on SF-539 CNS it was 5.17 µM; with IGROV1 ovarian, 6.03 µM; with MCF7 breast it was 0.732 µM; with DU-145 prostate, 79.3 µM. The GI50 was 0.976 µM in the test with SR leukemia, 0.283 µM in the test with UO-31 renal, 10.9 µM with BT-549 breast and 2.37 µM with M14 melanoma. Moreover, the TGI with SK-MEL-2 melanoma, with HCC-2998 colon, with SF-539 CNS, in the test with IGROV1 ovarian, in the test with MCF7 breast and with DU-145 prostate was above 100 µM throughout. The TGI is above 70.6 µM in the test with SR leukemia, above 100 µM in the test on UO-31 renal, above 100 µM in the test with BT-549 breast and above 100 µM in the test with M14 melanoma.
On to `CS(=O)(=O)CS(=O)(=O)OCCCl`, for which the TGI in the test with SK-MEL-2 melanoma worked out at 856 µM; in the test with HCC-2998 colon it was 727 µM; with SF-539 CNS, 266 µM; with IGROV1 ovarian, 911 µM; with MCF7 breast, 1420 µM; in the test on DU-145 prostate, 748 µM. Also, the TGI stood at 876 µM in the test with SR leukemia, 1080 µM in the test with UO-31 renal, 181 µM in the test with BT-549 breast and 770 µM in the test with M14 melanoma.
Consider `O=C(CCN1CCOCC1)Nc1cccc(-n2cc(-c3ccncc3)c(-c3ccc(Cl)c(O)c3)n2)c1`, for which the GI50 in the test with SK-MEL-2 melanoma was 1.85 µM; with HCC-2998 colon, 4.57 µM; in the test on SF-539 CNS, 1.77 µM; with IGROV1 ovarian, 3.52 µM; with MCF7 breast, 0.634 µM; with DU-145 prostate it was 2.49 µM. For the same molecule, the GI50 was 0.685 µM in the test with SR leukemia, 1.69 µM with UO-31 renal, 4.12 µM in the test on BT-549 breast and 1.53 µM with M14 melanoma. Moreover, the TGI amounted to 6.58 µM in the test on SK-MEL-2 melanoma; 17.3 µM with HCC-2998 colon; 3.72 µM in the test on SF-539 CNS; 21.5 µM with IGROV1 ovarian; 11.9 µM in the test with MCF7 breast; 11.7 µM with DU-145 prostate. Also, the TGI was 8.53 µM with SR leukemia, 11 µM with UO-31 renal, 18.1 µM in the test with BT-549 breast and 4.16 µM in the test with M14 melanoma.
Turning to `O=C(NC1CCCCC1)c1ccc(Nc2ncnc3c2cnn3-c2ccccc2)cc1`, the GI50 was 13.6 µM in the test with SK-MEL-2 melanoma; above 100 µM in the test on HCC-2998 colon; 3.81 µM with SF-539 CNS; 14.4 µM in the test with IGROV1 ovarian; 74.1 µM in the test on MCF7 breast; 10.6 µM with DU-145 prostate. For the same molecule, the GI50 was 11.6 µM with SR leukemia, 23.9 µM in the test with UO-31 renal, 5.69 µM with BT-549 breast and 18.3 µM in the test on M14 melanoma. For the same molecule, the TGI in the test on SK-MEL-2 melanoma is 36.2 µM; in the test with HCC-2998 colon, above 100 µM; in the test with SF-539 CNS, 17.1 µM; with IGROV1 ovarian, 65.9 µM; in the test with MCF7 breast, above 100 µM; in the test with DU-145 prostate, 48.1 µM. In addition, the TGI with SR leukemia was 49.1 µM; in the test on UO-31 renal it was above 100 µM; with BT-549 breast, 26.4 µM; in the test on M14 melanoma, above 100 µM.
In the case of `COc1cc(OC)c2sc(-c3ccc(-n4cncc4-c4cc(OC)c(OC)c(OC)c4)cc3)nc2c1`, the GI50 in the test with SK-MEL-2 melanoma is 6.09 µM; in the test with HCC-2998 colon it was above 100 µM; in the test with SF-539 CNS it was 8.59 µM; in the test on IGROV1 ovarian, 5.87 µM; in the test on MCF7 breast it was 3.88 µM; with DU-145 prostate, above 100 µM. Further, the GI50 in the test on SR leukemia is 3.24 µM; with UO-31 renal, 2.27 µM; in the test with BT-549 breast, 5.23 µM; with M14 melanoma, 7.91 µM. Further, the TGI with SK-MEL-2 melanoma, in the test on HCC-2998 colon, in the test with SF-539 CNS, with IGROV1 ovarian, with MCF7 breast and with DU-145 prostate was above 100 µM each time. Moreover, the TGI in the test with SR leukemia, in the test with UO-31 renal, in the test on BT-549 breast and with M14 melanoma was above 100 µM in each case.
As to `Cc1sc2c(c1C)C(c1ccc(Cl)cc1)=N[C@@H](CC(=O)Nc1ccc(OCCOCCOCCOCCNc3cccc4c3C(=O)N(C3CCC(=O)NC3=O)C4=O)cc1)c1nnc(C)n1-2` (some centres undefined), the GI50 in the test with SK-MEL-2 melanoma is 0.347 µM; in the test with HCC-2998 colon, 0.0796 µM; in the test with SF-539 CNS, 0.242 µM; with MCF7 breast, below 0.0166 µM; in the test with DU-145 prostate, above 59.3 µM; in the test with SR leukemia it was below 0.0219 µM. The GI50 in the test on UO-31 renal is 0.28 µM; in the test on BT-549 breast it was below 0.0228 µM; with M14 melanoma it was 0.388 µM. The TGI with SK-MEL-2 melanoma, in the test on HCC-2998 colon, with SF-539 CNS, in the test on IGROV1 ovarian, with MCF7 breast and in the test with DU-145 prostate was above 100 µM in each case. Besides, the TGI in the test on SR leukemia, with UO-31 renal, with BT-549 breast and in the test with M14 melanoma was above 100 µM in each case.
In the case of `COc1cc2c3c(n(CCCN(CCO)CCO)c(=O)c2cc1OC)-c1cc2c(cc1C3=O)OCO2`, the GI50 was 8.79 µM with SK-MEL-2 melanoma; below 0.01 µM with HCC-2998 colon; below 0.01 µM in the test with SF-539 CNS; below 0.01 µM with MCF7 breast; below 0.01 µM in the test with DU-145 prostate; below 0.01 µM with SR leukemia. In addition, the GI50 in the test on BT-549 breast is 0.586 µM; in the test on M14 melanoma it was below 0.01 µM. Further, the TGI was above 33 µM in the test with SK-MEL-2 melanoma; below 0.01 µM with HCC-2998 colon; below 0.0264 µM in the test on SF-539 CNS; above 100 µM with IGROV1 ovarian; above 24.7 µM with MCF7 breast; 1.27 µM with DU-145 prostate. Further, the TGI with SR leukemia is below 0.01 µM; with BT-549 breast it was 13.6 µM; in the test with M14 melanoma, 0.17 µM.
For the molecule `C=C1C(O)C2C(=C(C)C13CC3)C(=O)C(C)(C)C2OC` (centres undefined), the GI50 in the test with SK-MEL-2 melanoma was above 100 µM; with HCC-2998 colon, above 100 µM; in the test with SF-539 CNS, above 100 µM; in the test with IGROV1 ovarian, above 100 µM; in the test with MCF7 breast it was 69.4 µM; in the test on DU-145 prostate, above 100 µM. For the same molecule, the GI50 was 38 µM with SR leukemia, above 100 µM with UO-31 renal and above 100 µM with BT-549 breast. In addition, the TGI with SK-MEL-2 melanoma, with HCC-2998 colon, in the test with SF-539 CNS, in the test on IGROV1 ovarian, in the test with MCF7 breast and with DU-145 prostate was above 100 µM in each case. Moreover, the TGI in the test on SR leukemia, with UO-31 renal and with BT-549 breast was above 100 µM in each case.
Turning to `C=CCn1c(SCC(=O)Nc2ccc(C(=O)/C=C/c3cc(OC)c(OC)c(OC)c3)cc2)nnc1-c1ccc(OC)cc1`, the GI50 was 2.1 µM with SK-MEL-2 melanoma; 0.175 µM in the test on HCC-2998 colon; 0.248 µM in the test with SF-539 CNS; 0.324 µM in the test on IGROV1 ovarian; 0.246 µM in the test with MCF7 breast; 0.453 µM in the test with DU-145 prostate. Further, the GI50 is 0.255 µM with SR leukemia, 0.209 µM with BT-549 breast and 0.404 µM with M14 melanoma. The TGI in the test on SK-MEL-2 melanoma is 15.4 µM; in the test on HCC-2998 colon it was 0.379 µM; in the test with SF-539 CNS, 0.666 µM; in the test with IGROV1 ovarian it was 1.9 µM; in the test on MCF7 breast, 3.14 µM; in the test with DU-145 prostate, 16 µM. In addition, the TGI with SR leukemia is above 46.1 µM; in the test with BT-549 breast it was 0.546 µM; in the test on M14 melanoma it was 2.58 µM.
In the case of `COc1ccc(-c2ccc(NNC(=O)c3ccc(F)cc3)nn2)cc1OC`, the GI50 with HCC-2998 colon is above 100 µM; in the test with SF-539 CNS, above 100 µM; with IGROV1 ovarian, 63.3 µM; in the test with MCF7 breast it was 93.4 µM; in the test with DU-145 prostate it was above 100 µM; in the test with SR leukemia, above 100 µM. For the same molecule, the values for the GI50 with UO-31 renal, in the test with BT-549 breast and with M14 melanoma were 31.7 µM, 22.9 µM and above 100 µM, respectively. In addition, the TGI in the test on HCC-2998 colon, in the test with SF-539 CNS, with IGROV1 ovarian, in the test with MCF7 breast, in the test with DU-145 prostate and in the test on SR leukemia was above 100 µM throughout. Also, the TGI with UO-31 renal, in the test on BT-549 breast and with M14 melanoma was above 100 µM in each case.
For `Cn1c(=S)c2[nH]c(SCCCc3ccccc3)nc2n(C)c1=O`, the TGI was above 100 µM in the test with SK-MEL-2 melanoma; above 100 µM with SF-539 CNS; above 100 µM in the test on IGROV1 ovarian; above 100 µM with MCF7 breast; above 100 µM in the test with DU-145 prostate; 27.4 µM in the test with SR leukemia. In addition, the TGI in the test with UO-31 renal is 64.4 µM; with BT-549 breast, above 100 µM; in the test with M14 melanoma it was above 100 µM.
With `CC(=O)NC1CONC1=O` (centres undefined), the TGI with SK-MEL-2 melanoma, with SF-539 CNS, with IGROV1 ovarian, in the test on MCF7 breast, with DU-145 prostate and with SR leukemia was above 100 µM throughout. The TGI in the test with UO-31 renal, in the test on BT-549 breast and in the test with M14 melanoma was above 100 µM each time.
